Among the data in patent US7816353B2 (Exelixis, Inc., priority 2003, dated 2010) are IC50 values, retold here.

Each structure is given as a SMILES string. Where only a bound is given, the exact number is not on record here.

Common to all, as to assay type: biochemical
One test deals with T1, Akt1 (Homo sapiens, UniProt P31749).
T1 construct: made in house
Briefly: Akt1 Kinase Assay (Luciferase-Coupled Chemiluminescent Kinase assay, LCCA). To be noted: human Akt1 kinase domain residues R144-A480, activated with PDK1; 1 μM ATP; read-out: Akt-1 IC50. On the procedure:
(§1) Kinase activity and compound inhibition are investigated using one or more of the three assay formats described below. The ATP concentrations for each assay are selected to be close to the Michaelis-Menten constant (KM) for each individual kinase. Dose-response experiments are performed at 10 different inhibitor concentrations in a 384-well plate format. The data are fitted to four-parameter equation (2) below; where Y is the observed signal, X is the inhibitor concentration, Min is the background signal in the absence of enzyme (0% enzyme activity), Max is the signal in the absence of inhibitor (100% enzyme activity), IC50 is the inhibitor concentration at 50% enzyme inhibition and H represents the empirical Hill's slope to measure the cooperativity. Typically H is close to unity. Y=Min+(Max−Min)/(1+(X/IC50)^H) Equation (2) p70S6 Kinase Assay
Biochemical activity of Akt1 kinase was assessed using a Luciferase-Coupled Chemiluminescent Kinase assay (LCCA) format. Kinase activity was measured as the percent ATP remaining following the kinase reaction. Remaining ATP was detected by luciferase-luciferin-coupled chemiluminescence. Specifically, the reaction was initiated by mixing test compounds, 1 μM ATP, 5 μM crosstide peptide and 1.3 nM Akt1 (baculovirus expressed human Akt1 kinase domain residues R144-A480, activated with PDK1) in a 20 uL assay buffer (20 mM Tris-HCL pH 7.5, 10 mM MgCl2, 0.01% Triton X-100, 1 mM DTT, 3 mM MnCl2). The mixture is incubated at ambient temperature for 3 hours after which 20 μL luciferase-luciferin mix is added and the chemiluminescent signal read using a Wallac Victor2 reader. The luciferase-luciferin mix consists of 50 mM HEPES, pH 7.8, 8.5 μg/mL oxalic acid (pH 7.8), 5 (or 50) mM DTT, 0.4% Triton X-100, 0.25 mg/mL coenzyme A, 63 uM AMP, 28 μg/mL luciferin and 40,000 units/mL luciferase.

The next test has as its target T2, p70S6K (Homo sapiens, UniProt P23443, T412E).
T2 construct: human p70S6 kinase domain residues 1-421, containing a T412E mutation; made in house
Briefly: p70S6 Kinase Assay (Luciferase-Coupled Chemiluminescent Kinase assay, LCCA). As to conditions: human p70S6 kinase domain residues 1-421, T412E; 5 μM ATP; read-out: p70S6K IC50. In a few lines: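 Luciferase-coupled chemiluminescence measured percent ATP remaining after the 2 h kinase reaction at ambient temperature, with ATP near the kinase's KM. Ten inhibitor concentrations were tested. IC50 was obtained from a Hill-equation fit.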

Another test concerns the target T3, PDK1 (Homo sapiens, UniProt O15530).
T3 construct: human PDK1 kinase domain residues M51-T359; made in house
T3 sequence (O15530 51-359): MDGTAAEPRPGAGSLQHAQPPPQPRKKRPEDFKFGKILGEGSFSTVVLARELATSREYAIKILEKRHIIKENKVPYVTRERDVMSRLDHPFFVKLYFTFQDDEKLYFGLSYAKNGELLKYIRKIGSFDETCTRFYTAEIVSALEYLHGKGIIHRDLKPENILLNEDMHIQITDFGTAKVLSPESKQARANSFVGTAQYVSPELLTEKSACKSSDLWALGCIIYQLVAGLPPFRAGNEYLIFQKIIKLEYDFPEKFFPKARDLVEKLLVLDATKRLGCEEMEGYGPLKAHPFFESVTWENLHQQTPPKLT
Briefly: PDK1 Kinase Assay (Luciferase-Coupled Chemiluminescent Kinase assay, LCCA). As to conditions: human PDK1 kinase domain residues M51-T359; 0.5 μM ATP; read-out: PDK-1 IC50. The method, then:
as §1
Biochemical activity of PDK1 kinase was assessed using a Luciferase-Coupled Chemiluminescent Kinase assay (LCCA) format. Kinase activity was measured as the percent ATP remaining following the kinase reaction. Remaining ATP was detected by luciferase-luciferin-coupled chemiluminescence. Specifically, the reaction was initiated by mixing test compounds, 0.5 μM ATP, 0.6 μM PDKtide peptide and 6 nM PDK1 (baculovirus expressed human PDK1 kinase domain residues M51-T359) in a 20 uL assay buffer (20 mM Hepes pH 7.5, 1 mM CaCl2, 0.03% CHAPS, 2 mM DTT). The mixture is incubated at ambient temperature for 3 hours after which 20 μL luciferase-luciferin mix is added and the chemiluminescent signal read using a Wallac Victor2 reader. The luciferase-luciferin mix consists of 50 mM HEPES, pH 7.8, 8.5 μg/mL oxalic acid (pH 7.8), 5 (or 50) mM DTT, 0.4% Triton X-100, 0.25 mg/mL coenzyme A, 63 uM AMP, 28 μg/mL luciferin and 40,000 units/mL luciferase.

T2 sequence (P23443 1-421 T412E): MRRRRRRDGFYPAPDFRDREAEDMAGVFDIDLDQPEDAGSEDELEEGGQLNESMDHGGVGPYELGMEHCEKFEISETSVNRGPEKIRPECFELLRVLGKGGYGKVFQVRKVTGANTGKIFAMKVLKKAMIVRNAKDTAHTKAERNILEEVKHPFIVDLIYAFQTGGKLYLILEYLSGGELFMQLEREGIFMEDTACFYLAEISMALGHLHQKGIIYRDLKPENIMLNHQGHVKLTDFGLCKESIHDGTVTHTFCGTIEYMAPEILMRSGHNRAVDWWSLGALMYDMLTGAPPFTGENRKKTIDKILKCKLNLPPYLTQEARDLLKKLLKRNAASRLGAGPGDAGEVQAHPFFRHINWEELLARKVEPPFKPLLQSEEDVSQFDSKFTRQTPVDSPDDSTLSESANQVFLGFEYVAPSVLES
T1 sequence (P31749 144-480): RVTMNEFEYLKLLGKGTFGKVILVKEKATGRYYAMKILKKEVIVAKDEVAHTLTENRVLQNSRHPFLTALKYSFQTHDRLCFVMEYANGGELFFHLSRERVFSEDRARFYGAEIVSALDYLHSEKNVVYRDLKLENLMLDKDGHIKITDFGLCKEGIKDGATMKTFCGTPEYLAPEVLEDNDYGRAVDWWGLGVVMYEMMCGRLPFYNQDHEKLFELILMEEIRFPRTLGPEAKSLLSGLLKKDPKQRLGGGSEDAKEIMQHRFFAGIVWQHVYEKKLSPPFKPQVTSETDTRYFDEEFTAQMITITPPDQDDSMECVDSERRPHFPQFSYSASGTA

`CSc1nc(COC(=O)Nc2cccc(C(F)(F)F)c2)cc(NCc2ccccc2)n1` [Example 40, {2-(methylthio)-6-[(phenylmethyl)amino]pyrimidin-4-yl}methyl [3-(trifluoromethyl)phenyl]carbamate]: the IC50 (usually the midpoint of a concentration-inhibition curve) was greater than 2000 nM on Akt1, less than 50 nM on p70S6K and greater than 2000 nM at PDK1.
Turning to `CSc1nc(N)nc(N(C)[C@@H](C)C(=O)Nc2cccc(Br)c2)c1C#N` [Example 133, N~2~-[2-amino-5cyano-6-(methylthio)pyrimidin-4-yl]-N-(3-bromophenyl)-N~2~-methyl-L-alaninamide], the IC50 on Akt1 is greater than 2000 nM; at p70S6K, less than 50 nM; at PDK1 it was greater than 2000 nM.
As for `CCOc1nc(N)nc(N[C@@H](CCCN)C(=O)Nc2cccc(C(F)(F)F)c2)c1C#N` [Example 129, N^2-[2-amino-5-cyano-6-(ethyloxy)pyrimidin-4-yl]-N-[3-(trifluoromethyl)phenyl]-L-ornithinamide], the IC50 at Akt1, on p70S6K and at PDK1 was greater than 2000 nM throughout.
`CSc1nc(N)nc(N[C@@H](C)C(=O)Nc2cc(OCCN(C)C)cc(C(F)(F)F)c2)c1C#N` [Example 137, N~2~-[2-amino-5-cyano-6-(methylthio)pyrimidin-4-yl]-N-[3-{[2-(dimethylamino)ethyl]oxy}-5-(trifluoromethyl)phenyl]-L-alaninamide]: the values for the half-inhibitory concentration (IC50) on Akt1, at p70S6K and at PDK1 were greater than 2000 nM, less than 50 nM and greater than 2000 nM, respectively.
For the molecule `CNc1cc(COC(=O)Nc2cccc(C(F)(F)F)c2)nc(SC)n1` [Example 39, [6-(methylamino)-2-(methylthio)pyrimidin-4-yl]methyl [3-(trifluoromethyl)phenyl]carbamate], the IC50 on Akt1 was greater than 2000 nM; at p70S6K, less than 50 nM; at PDK1, greater than 2000 nM.
For `CSc1nc(N)nc(SCC(=O)Nc2nccs2)c1C#N` [Example 27, 2-{[2-amino-5-cyano-6-(methylthio)pyrimidin-4-yl]thio}-N-1,3-thiazol-2-ylacetamide], the IC50 at Akt1 is greater than 2000 nM; on p70S6K it was less than 50 nM; at PDK1 it was greater than 2000 nM.
Regarding `CSc1cc(OCC(=O)Nc2cccc(C(F)(F)F)c2)nc(N)n1`, the IC50 is greater than 2000 nM at Akt1, less than 50 nM at p70S6K and greater than 2000 nM at PDK1.
For `CSc1nc(N)nc(N(C)[C@@H](C)C(=O)Nc2cc(C(=O)NCCN(C)C)cc(C(F)(F)F)c2)c1C#N` [Example 130, 3-({N-[2-amino5-cyano-6-(methylthio)pyrimidin-4-yl]-N-methyl-L-alanyl}amino)-N-[2-(dimethylamino)ethyl]-5-(trifluoromethyl)benzamide], the IC50 at Akt1 is greater than 2000 nM; at p70S6K, less than 50 nM; at PDK1, greater than 2000 nM.
With `CSc1nc(N)nc(SCC(=O)Nc2cccc(C(F)(F)F)c2)c1C#N` [Example 21, 2-{[2-amino-5-cyano-6-(methylthio)pyrimidin-4-yl]thio}-N-[3-(trifluoromethyl)phenyl]acetamide], the IC50 on Akt1 was greater than 2000 nM; on p70S6K, less than 50 nM; at PDK1, greater than 2000 nM.
Turning to `CSc1nc(N)nc(N[C@@H](COC(C)=O)C(=O)Nc2cccc(C(F)(F)F)c2)c1C#N` [Example 138, (2S0-2-{[2-amino-5-cyano-6-(methylthio)pyrimidin-4-yl]amino}-3-oxo-3-{[3-(trifluoromethyl)phenyl]amino}propyl acetate], the figures for the concentration for half-maximal inhibition (IC50) on Akt1, at p70S6K and at PDK1 were greater than 2000 nM, 50 to 500 nM and greater than 2000 nM, respectively.
Turning to `CSc1nc(N)nc(SCC(=O)n2nc(C)cc2C)c1C#N` [Example 26, 2-amino-4-{[2-(3,5-dimethyl-1H-pyrazol-1-yl)-2-oxoethyl]thio}-6-(methylthio)pyrimidine-5-carbonitrile], the IC50 on Akt1 is greater than 2000 nM; on p70S6K it was less than 50 nM; on PDK1, greater than 2000 nM.
`CSc1cc(COC(=O)Nc2cccc(C(F)(F)F)c2)nc(NCc2ccccc2)n1` [Example 38, {6-(methylthio)-2-[(phenylmethyl)amino]pyrimidin-4-yl}methyl [3-(trifluoromethyl)phenyl]carbamate]: the IC50 was greater than 2000 nM at Akt1, less than 50 nM at p70S6K and greater than 2000 nM on PDK1.
With `CSc1nc(N)nc(SCC(=O)Nc2ccc(Cl)c(C(F)(F)F)c2)c1C#N` [Example 34, 2-{[2-amino-5-cyano-6-(methylthio)pyrimidin-4-yl]thio}-N-[4-chloro-3-(trifluoromethyl)phenyl]acetamide], the IC50 at Akt1 is greater than 2000 nM; at p70S6K it was less than 50 nM; on PDK1 it was greater than 2000 nM.
Turning to `CSc1nc(N)nc(SCC(=O)c2ccc3c(c2)NC(=O)CO3)c1C#N` [Example 49, 2-amino-4-(methylthio)-6-{[2-oxo-2-(3-oxo-3,4-dihydro-2H-1,4-benzoxazin-6-yl)ethyl]thio}pyrimidine-5-carbonitrile], the IC50 at Akt1 is greater than 2000 nM; on p70S6K, 50 to 500 nM; at PDK1, greater than 2000 nM.
Turning to `Nc1cc(SCC(=O)Nc2ccc(F)c(C(F)(F)F)c2)nc(N)n1` [Example 32, 2-[(2,6-diaminopyrimidin-4-yl)thio]-N-[4-fluoro-3-(trifluoromethyl)phenyl]acetamide], the values for the 50% inhibitory concentration (IC50) at Akt1, at p70S6K and on PDK1 were greater than 2000 nM, less than 50 nM and greater than 2000 nM, respectively.
In the case of `CCc1nnc(NC(=O)CSc2nc(N)nc(SC)c2C#N)s1` [Example 24, 2-{[2-amino-5-cyano-6-(methylthio)pyrimidin-4-yl]thio}-N-(5-ethyl-1,3,4-thiadiazol-2-yl)acetamide], the figures for the IC50 on Akt1, at p70S6K and on PDK1 were greater than 2000 nM, less than 50 nM and greater than 2000 nM, respectively.
As to `CSc1nc(N)nc(SCC(=O)Nc2ccc(F)c(C(F)(F)F)c2)c1C#N` [Example 31, 2-{[2-amino-5-cyano-6-(methylthio)pyrimidin-4-yl]thio}-N-[4-fluoro-3-(triuoromethyl)phenyl]acetamide], the IC50 is greater than 2000 nM at Akt1, less than 50 nM at p70S6K and greater than 2000 nM on PDK1.
